These results are taken from article PMC6658782, “The Novel Arylamidine T-2307 Selectively Disrupts Yeast Mitochondrial Function by Inhibiting Respiratory Chain Complexes” (Antimicrobial Agents and Chemotherapy, 2019).

The target in data set [1] is respiratory chain complex I (Bos taurus, UniProt P03887+P17694+P42026). The experiment in a line: MitoCheck complex I activity assay, bovine heart mitochondria. Format: biochemical. The protocol: The enzymatic activities of bovine heart mitochondrial respiratory chain complexes were determined using MitoCheck complex I, complex II/III, and complex IV activity assay kits (Cayman Chemical, Ann Arbor, MI, USA). Bovine heart mitochondria from these kits were used for experiments. The experiments were performed following the manufacturer’s instructions. In the experiments, 2 μM rotenone, 1 mM KCN, and both 1 mM TTFA and 5 μg/ml antimycin A served as positive controls for the inhibition of complex I, complex IV, and complexes II plus III, respectively.
In all experiments, the reaction rate of each enzyme was determined by calculating the slope of the linear portion of the curve. Complex I activity in C. albicans was calculated by subtracting the rotenone-insensitive enzymatic activity (with 10 μM rotenone) from the NADH dehydrogenase activity (without rotenone).
OCRs in isolated mitochondria and intracellular ATP levels were compared between the control and treatment groups using the parametric Dunnett’s multiple-comparison test. P values of <0.05 (comparison of multiple groups) were considered statistically significant. IC50 values were determined from dose-response curves compared with untreated control samples using a four-parameter logistic curve-fitting analysis. Data were analyzed using JMP 13.0 (SAS Institute Japan Ltd., Tokyo, Japan).

The target in data set [2] is respiratory chain complex IV (Candida albicans, UniProt P0C8K9+Q9B1P9+Q9B8D8). Put plainly: Respiratory chain enzymatic activity, complex IV, C. albicans. The following applies: C. albicans mitochondria; read-out: IC50 ± SD, Complex IV. The data set is classed as biochemical.
Data set [3] has as its target respiratory chain complex II + III (Saccharomyces cerevisiae, UniProt P00163+P07143+P08067). Put plainly: Respiratory chain enzymatic activity, complexes II plus III, S. cerevisiae. Format: biochemical.
The subject of the next data set is rat liver mitochondria. On the set-up: method as in PMID 22948882. The following applies: cited from earlier work.
In data set [4] the target is respiratory chain complex IV (Bos taurus, UniProt P00396+P00415+P68530). The experiment in a line: MitoCheck complex IV activity assay, bovine heart mitochondria. The data set is classed as biochemical.
The test system of the next data set is whole yeast cells. The experiment in a line: Oxygen consumption of whole yeast cells (oxygen electrode). Format: cell-based, Saccharomyces cerevisiae.
Another data set relates to S. cerevisiae cells. Put plainly: Accumulation of T-2307 in S. cerevisiae cells. Format: cell-based, Saccharomyces cerevisiae.
For data set [5], the system named is Saccharomyces cerevisiae. Put plainly: MIC determination, broth microdilution in semisynthetic medium. The data set is classed as cell-based. The protocol:
MIC was determined using the broth microdilution method based on the Clinical and Laboratory Standards Institute method with the following minor modifications ([38]). The medium used for MIC determination was semisynthetic medium, which was used for the measurement of intracellular ATP levels as described above. […].

For a further data set, the system named is C. albicans cells. The following applies: cited from earlier work.
In a further data set the target is NADH dehydrogenase. The experiment in a line: NADH dehydrogenase activity, C. albicans. The data set is classed as biochemical, Candida albicans. The note with it: C. albicans mitochondria; involves complex I activity; read-out: IC50 against NADH dehydrogenase activity.
Data set [6] concerns the target respiratory chain complex II (Saccharomyces cerevisiae, UniProt P21801+P33421+P37298+Q00711). Put plainly: Respiratory chain enzymatic activity, complex II, S. cerevisiae. Format: biochemical.
Data set [7] has as its target respiratory chain complex II + III (Bos taurus, UniProt P00125+P00157+P13272). The experiment in a line: MitoCheck complex II/III activity assay, bovine heart mitochondria. The data set is classed as biochemical.
The subject of the next data set is S. cerevisiae. The following applies: cited from earlier work.
Data set [8] concerns Saccharomyces cerevisiae. The experiment in a line: Intracellular ATP levels in yeast (luminescence assay). Format: cell-based. The protocol: Intracellular ATP levels were measured using a previously described method with the following modifications ([25]). S. cerevisiae was grown overnight in a semisynthetic medium (per liter: 20 g of lactate, 0.5 g of glucose, 3 g of yeast extract, 1 g of KH2PO4, 1 g of NH4Cl, 0.5 g of CaCl2·2H2O, 0.5 g of NaCl, and 0.6 g of MgCl2·6H2O; adjusted to pH 5.5 with NaOH). The cells were harvested during the logarithmic-growth phase by centrifugation (3,000 × g at room temperature for 5 min). They were then washed and resuspended in distilled water. The suspension was diluted in a semisynthetic medium to yield 1 × 10^6 cells/ml. After 5 min of incubation at 30°C, T-2307 and antimycin A were added to the suspension. Further, the cells were incubated for 8 h at 30°C. Subsequently, the cells were collected by centrifugation (4,200 × g at 4°C for 5 min). After washes performed with phosphate-buffered saline (PBS; pH 7.2), the cells were resuspended in PBS and diluted to yield 1 × 10^6 cells/ml. ATP levels were measured using the BacTiter-Glo microbial cell viability assay (Promega, Madison, WI, USA), following the manufacturer’s instructions. Luminescence was measured using a microplate reader POLARstar Optima (BMG Labtech GmbH). To determine the viable cell counts, the cell suspension was diluted with PBS and spread on YPD agar. After a 2-day incubation at 30°C, colonies were counted. The intracellular ATP level is expressed as relative light units (RLU)/CFU.

≈ marks a conversion by molar mass, not a printed value. Where “and” joins values, the source holds several entries; their conditions need not be identical. Equal entries are not always repeated.

respiratory chain complex IV (Candida albicans, UniProt P0C8K9+Q9B1P9+Q9B8D8), sequence (P0C8K9 whole entry): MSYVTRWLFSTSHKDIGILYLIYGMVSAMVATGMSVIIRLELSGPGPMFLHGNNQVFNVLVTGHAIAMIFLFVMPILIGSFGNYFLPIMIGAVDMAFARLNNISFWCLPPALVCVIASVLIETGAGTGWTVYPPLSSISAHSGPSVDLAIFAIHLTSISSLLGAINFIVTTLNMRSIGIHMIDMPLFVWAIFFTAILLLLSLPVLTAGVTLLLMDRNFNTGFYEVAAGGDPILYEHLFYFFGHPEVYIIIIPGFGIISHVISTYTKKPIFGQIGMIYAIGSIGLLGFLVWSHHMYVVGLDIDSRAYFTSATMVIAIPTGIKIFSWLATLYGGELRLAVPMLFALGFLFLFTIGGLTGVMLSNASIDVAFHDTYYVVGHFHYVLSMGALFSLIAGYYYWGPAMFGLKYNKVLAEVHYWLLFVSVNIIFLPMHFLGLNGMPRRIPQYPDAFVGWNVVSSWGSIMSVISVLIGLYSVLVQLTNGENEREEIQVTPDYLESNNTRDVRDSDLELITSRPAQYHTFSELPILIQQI
respiratory chain complex IV (Candida albicans, UniProt P0C8K9+Q9B1P9+Q9B8D8), sequence (Q9B8D8 whole entry): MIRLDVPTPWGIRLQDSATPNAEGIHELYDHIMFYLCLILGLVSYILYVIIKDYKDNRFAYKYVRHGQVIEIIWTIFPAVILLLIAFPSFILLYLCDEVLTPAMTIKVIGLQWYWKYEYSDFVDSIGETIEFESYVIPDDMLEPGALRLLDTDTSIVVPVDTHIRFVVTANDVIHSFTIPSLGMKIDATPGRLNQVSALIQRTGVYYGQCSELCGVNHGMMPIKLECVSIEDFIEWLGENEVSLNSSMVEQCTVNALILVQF
respiratory chain complex IV (Candida albicans, UniProt P0C8K9+Q9B1P9+Q9B8D8), sequence (Q9B1P9 whole entry): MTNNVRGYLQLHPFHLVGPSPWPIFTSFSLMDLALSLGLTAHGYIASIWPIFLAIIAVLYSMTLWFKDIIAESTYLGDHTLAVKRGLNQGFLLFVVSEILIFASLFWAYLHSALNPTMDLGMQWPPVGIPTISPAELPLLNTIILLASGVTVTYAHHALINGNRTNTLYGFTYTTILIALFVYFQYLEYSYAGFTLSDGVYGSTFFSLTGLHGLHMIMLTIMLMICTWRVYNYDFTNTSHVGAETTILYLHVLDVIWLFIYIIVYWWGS
respiratory chain complex II, sequence (P21801 21-266): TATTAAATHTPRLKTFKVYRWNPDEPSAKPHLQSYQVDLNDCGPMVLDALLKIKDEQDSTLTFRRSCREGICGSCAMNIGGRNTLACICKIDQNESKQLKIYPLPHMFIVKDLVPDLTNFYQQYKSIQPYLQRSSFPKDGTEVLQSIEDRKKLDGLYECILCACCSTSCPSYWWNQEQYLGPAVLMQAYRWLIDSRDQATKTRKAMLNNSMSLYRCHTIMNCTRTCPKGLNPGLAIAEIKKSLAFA
respiratory chain complex II, sequence (P33421 51-198): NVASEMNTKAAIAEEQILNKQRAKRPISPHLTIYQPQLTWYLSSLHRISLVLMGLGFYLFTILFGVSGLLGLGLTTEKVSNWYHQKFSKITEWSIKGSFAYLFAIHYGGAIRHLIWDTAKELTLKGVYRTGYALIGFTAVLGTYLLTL
respiratory chain complex II, sequence (P37298 32-181): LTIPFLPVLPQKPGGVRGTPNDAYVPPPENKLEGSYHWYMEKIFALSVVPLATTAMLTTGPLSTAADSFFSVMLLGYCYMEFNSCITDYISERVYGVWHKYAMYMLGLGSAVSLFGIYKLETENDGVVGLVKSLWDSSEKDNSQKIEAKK
respiratory chain complex II, sequence (Q00711 29-640): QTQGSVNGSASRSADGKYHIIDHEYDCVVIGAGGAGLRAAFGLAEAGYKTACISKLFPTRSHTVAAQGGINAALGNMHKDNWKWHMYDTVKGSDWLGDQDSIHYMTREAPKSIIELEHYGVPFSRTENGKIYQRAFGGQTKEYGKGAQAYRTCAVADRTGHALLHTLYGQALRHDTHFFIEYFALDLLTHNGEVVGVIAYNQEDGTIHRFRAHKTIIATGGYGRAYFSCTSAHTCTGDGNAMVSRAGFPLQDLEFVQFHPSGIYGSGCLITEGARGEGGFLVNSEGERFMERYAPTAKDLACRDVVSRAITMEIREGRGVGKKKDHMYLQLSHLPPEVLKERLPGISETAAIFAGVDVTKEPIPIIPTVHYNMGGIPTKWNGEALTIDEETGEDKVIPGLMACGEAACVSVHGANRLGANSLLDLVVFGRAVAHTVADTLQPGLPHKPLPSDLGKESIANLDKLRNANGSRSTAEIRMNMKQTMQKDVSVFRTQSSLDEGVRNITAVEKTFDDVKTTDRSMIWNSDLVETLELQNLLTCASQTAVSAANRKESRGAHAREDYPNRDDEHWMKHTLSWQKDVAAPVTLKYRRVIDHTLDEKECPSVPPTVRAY

Regarding `N=C(N)c1ccc(OCCCC2CCN(CCCOc3ccc(C(=N)N)cc3)CC2)cc1` [T-2307], the IC50 in [1] (bovine heart mitochondria, read-out: IC50 ± SD, Complex I) was greater than 3000 µM; in [2], 225 ± 23 µM; in data set [3], 271 ± 37 µM; in data set [4] (bovine heart mitochondria, read-out: IC50 ± SD, Complex IV) it was greater than 3000 µM; on NADH dehydrogenase it was 2000 µM; in data set [6], 755 ± 73 µM. The IC50 in data set [7] (bovine heart mitochondria, read-out: IC50 ± SD, Complex II + III) is greater than 3000 µM. Moreover, the remaining activity at 3000 µM in [1] (bovine, read-out: remaining enzymatic activity of complex I) was found to be 68%; in data set [4] (read-out: remaining enzymatic activity of complex IV) it was 92%; in [7] (read-out: remaining enzymatic activity of complexes II plus III), 93%. For the same compound, in the data set on rat liver mitochondria, the “effect on the MMP and on respiration in rat liver mitochondria” value was “little effect”. The “IC50 for complex IV in bovine heart mitochondria relative to yeast mitochondria” value in [4] is listed as greater than 10 fold. The “effect on oxygen consumption in whole yeast cells” value with whole yeast cells was “dose-dependent inhibition of respiration”. Besides, the “concentration in cells relative to extracellular medium” value in the data set on S. cerevisiae cells is reported as “approximately 6,000 fold”; in the data set on C. albicans cells, > 3,000 fold. In addition, the MIC with Saccharomyces cerevisiae [5] (72 h) is 0.0068 µg/mL and 0.0156 µM. Moreover, the inhibition at 0.125 µM in the data set on Saccharomyces cerevisiae [5] (read-out: growth inhibition) was greater than 75%. Besides, in data set [7], the “IC50 for complexes II plus III in bovine heart mitochondria relative to yeast mitochondria” value is greater than 10 fold. The MIC reported previously with S. cerevisiae is 2 nM (≈ 0.875 ng/mL). The “concentration that significantly decreased intracellular ATP levels” value in the data set with Saccharomyces cerevisiae [8] was no less than 0.01 µM. Further, the “reduction in intracellular ATP level” value in the data set on Saccharomyces cerevisiae [8] is given as roughly 80%. Further, in the data set on Saccharomyces cerevisiae [8], the “reduction in intracellular ATP levels” value was greater than 50%.
